{"source": "paper PMC3870299", "about": "“Comparative genomics and functional analysis of rhamnose catabolic pathways and regulons in bacteria” (Frontiers in Microbiology, 2013)", "key": {"RhaR": {"target": "T1, RhaR (Chloroflexus aurantiacus, UniProt A9WGG7)", "T1 construct": "gene Caur_2290", "assay": "EMSA, loss of RhaR-DNA binding", "settings": "effector at 2 mM; RhaR 1 uM; pH 8.0; 50 C; L-rhamnulose made enzymatically from L-Rha by Ec_RhaA; Figure 5 legend prints L-rhamnose for this effect (apparent misprint)"}, "Ca_RhaEW": {"target": "T2, Ca_RhaEW (Chloroflexus aurantiacus, UniProt A9WGG0)", "T2 construct": "gene Caur_2283; full-length, N-terminal His6 tag, expressed in E. coli, Ni-NTA purified", "T2 sequence (A9WGG0 entry or part of it)": "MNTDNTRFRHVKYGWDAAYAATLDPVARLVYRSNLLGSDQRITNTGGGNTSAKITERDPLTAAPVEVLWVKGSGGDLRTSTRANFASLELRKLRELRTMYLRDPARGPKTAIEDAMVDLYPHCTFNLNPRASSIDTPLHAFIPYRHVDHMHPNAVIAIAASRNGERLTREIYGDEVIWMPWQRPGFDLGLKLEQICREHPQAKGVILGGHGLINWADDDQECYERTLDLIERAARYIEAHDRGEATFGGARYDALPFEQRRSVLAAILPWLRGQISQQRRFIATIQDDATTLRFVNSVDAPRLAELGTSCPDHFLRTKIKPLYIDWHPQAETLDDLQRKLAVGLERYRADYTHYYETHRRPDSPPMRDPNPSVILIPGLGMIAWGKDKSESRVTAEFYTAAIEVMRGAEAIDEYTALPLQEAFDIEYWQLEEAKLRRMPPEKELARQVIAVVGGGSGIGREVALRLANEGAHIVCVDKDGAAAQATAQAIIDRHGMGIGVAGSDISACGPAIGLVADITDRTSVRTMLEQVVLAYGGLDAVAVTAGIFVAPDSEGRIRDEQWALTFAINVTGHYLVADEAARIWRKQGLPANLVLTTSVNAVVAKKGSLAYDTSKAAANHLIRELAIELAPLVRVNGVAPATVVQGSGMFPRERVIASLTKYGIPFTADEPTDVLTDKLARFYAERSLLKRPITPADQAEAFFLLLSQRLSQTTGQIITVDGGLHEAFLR", "assay": "coupled NADH detection at […] nm and GC-MS of products", "format": "biochemical", "settings": "substrate made in situ from L-Rha by Ec_RhaA and Tm_RhaB, NAD+ 1.4 mM, Zn2+, pH 8, 30-70 C"}, "Bs_RhaEW": {"target": "T3, Bs_RhaEW (Bacillus subtilis, UniProt P40747)", "T3 construct": "gene yuxG; full-length, N-terminal His6 tag, expressed in E. coli, Ni-NTA purified", "T3 sequence (P40747 whole entry)": "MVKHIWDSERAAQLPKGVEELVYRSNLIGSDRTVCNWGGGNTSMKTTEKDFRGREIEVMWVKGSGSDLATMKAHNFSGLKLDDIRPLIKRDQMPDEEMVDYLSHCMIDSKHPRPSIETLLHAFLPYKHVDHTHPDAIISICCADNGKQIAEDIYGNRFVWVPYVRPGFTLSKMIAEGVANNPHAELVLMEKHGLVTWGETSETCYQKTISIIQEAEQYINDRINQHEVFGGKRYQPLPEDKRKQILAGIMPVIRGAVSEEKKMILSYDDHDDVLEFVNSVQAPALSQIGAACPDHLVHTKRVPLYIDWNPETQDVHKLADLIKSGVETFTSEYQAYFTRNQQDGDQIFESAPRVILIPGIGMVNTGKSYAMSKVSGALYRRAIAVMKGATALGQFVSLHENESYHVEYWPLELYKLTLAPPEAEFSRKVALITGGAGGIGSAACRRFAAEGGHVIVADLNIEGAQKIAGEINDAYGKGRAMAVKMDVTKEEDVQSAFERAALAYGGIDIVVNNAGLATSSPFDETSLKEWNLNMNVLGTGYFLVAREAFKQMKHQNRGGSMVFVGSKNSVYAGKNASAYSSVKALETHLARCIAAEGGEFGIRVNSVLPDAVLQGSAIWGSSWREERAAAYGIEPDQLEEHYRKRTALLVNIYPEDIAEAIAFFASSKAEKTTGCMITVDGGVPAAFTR", "assay": "coupled NADH detection at […] nm", "format": "biochemical", "settings": "substrate made in situ from L-Rha by Ec_RhaA and Tm_RhaB; NAD+ 2.5 mM; Zn2+; pH 7.5; 25 C"}, "St_RhaZ": {"target": "T4, St_RhaZ (Salmonella enterica, UniProt Q8ZKS2)", "T4 construct": "gene STM4044; full-length, N-terminal His6 tag, expressed in E. coli, Ni-NTA purified", "T4 sequence (Q8ZKS2 1-382)": "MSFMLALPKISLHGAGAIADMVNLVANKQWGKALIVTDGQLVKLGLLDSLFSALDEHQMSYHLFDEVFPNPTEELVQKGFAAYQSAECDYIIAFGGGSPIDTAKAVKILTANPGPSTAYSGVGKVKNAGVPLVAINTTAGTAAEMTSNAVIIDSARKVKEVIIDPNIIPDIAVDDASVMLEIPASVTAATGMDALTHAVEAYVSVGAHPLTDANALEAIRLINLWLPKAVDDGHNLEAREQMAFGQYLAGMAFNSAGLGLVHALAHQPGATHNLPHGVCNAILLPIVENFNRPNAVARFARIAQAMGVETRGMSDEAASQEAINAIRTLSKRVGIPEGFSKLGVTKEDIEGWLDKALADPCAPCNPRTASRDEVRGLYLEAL", "assay": "coupled NADH oxidation at […] nm", "format": "biochemical", "settings": "substrate made in situ by Ec_RhaA, Tm_RhaB and St_RhaD; NADH 0.25 mM; pH 7.5; 25 C; no dehydrogenase activity with NAD+", "text": "St_RhaZ was active under these conditions"}, "RhaR (DeoR family)": {"target": "T5, RhaR (DeoR family) (Chloroflexus aurantiacus J-10-fl, UniProt A9WGG7 1-260)", "T5 sequence": "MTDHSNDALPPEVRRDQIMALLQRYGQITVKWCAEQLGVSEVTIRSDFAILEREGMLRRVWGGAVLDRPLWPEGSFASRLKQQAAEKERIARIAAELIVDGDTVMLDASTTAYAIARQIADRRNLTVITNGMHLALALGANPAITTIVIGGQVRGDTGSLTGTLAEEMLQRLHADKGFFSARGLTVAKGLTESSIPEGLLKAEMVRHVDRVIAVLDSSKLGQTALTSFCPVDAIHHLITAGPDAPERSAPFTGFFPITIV", "assay": "EMSA; RhaR 0.25-1 uM, no effector; poly(dI-dC); EMSA: 50 mM Tris-HCl pH 8.0, 150 mM NaCl, 5 mM MgCl2, 1 mM DTT (printed DDT), 0.05% NP-40, 2.5% glycerol, 1 ug poly(dI-dC), 0.2 nM DNA, 20 ul, 25 min at 50 C; 1.5% agarose gel at room temperature", "settings": "protein: recombinant; tags: His6-Smt3 (SUMO) N-terminal tag, cleaved with Ulp1; blunt"}}}
{"molecule": "C[C@@H]1OC(O)(CO)[C@H](O)[C@H]1O", "note": "(stereo partly drawn) [L-rhamnulose]", "values": [{"measurement": "EMSA, loss of RhaR-DNA binding", "setting": "RhaR", "result": "L-rhamnulose abolished the specific DNA-binding ability of RhaR"}]}
{"molecule": "C[C@H](O)[C@H](O)[C@@H](O)C(=O)COP(=O)(O)O", "note": "[L-rhamnulose-1-P]", "values": [{"measurement": "coupled NADH detection at 340 nm and GC-MS of products", "setting": "Ca_RhaEW", "result": "Ca_RhaEW acts in vitro to convert L-rhamnulose-1-P to L-lactate and DHAP"}, {"measurement": "coupled NADH detection at 340 nm", "setting": "Bs_RhaEW", "result": "The Bs_RhaEW protein showed weak, but reproducible activity"}]}
{"molecule": "NC(=O)c1ccc[n+]([C@@H]2O[C@H](COP(=O)(O)OP(=O)(O)OC[C@H]3O[C@@H](n4cnc5c(N)ncnc54)[C@H](O)[C@@H]3O)[C@@H](O)[C@H]2O)c1", "note": "[NAD^+]", "values": [{"measurement": "coupled NADH detection at 340 nm and GC-MS of products", "setting": "Ca_RhaEW; no product without NAD+, no activity with NADH", "result": "exclusion of NAD^+ which is an essential cofactor of L-lactaldehyde dehydrogenase"}, {"measurement": "coupled NADH detection at 340 nm", "setting": "Bs_RhaEW", "result": "the reduction of NAD^+ or oxidation of NADH was monitored"}]}
{"molecule": "NC(=O)C1=CN([C@@H]2O[C@H](COP(=O)(O)OP(=O)(O)OC[C@H]3O[C@@H](n4cnc5c(N)ncnc54)[C@H](O)[C@@H]3O)[C@@H](O)[C@H]2O)C=CC1", "note": "[NADH]", "values": [{"measurement": "coupled NADH oxidation at 340 nm", "setting": "St_RhaZ", "result": "with the exception of supplying NADH as the cofactor. St_RhaZ was active under these conditions"}]}
{"molecule": "rhaR upstream 48-bp fragment (38-bp RhaR operator) (dsDNA) DNA 1: GGGGGTTCGTAAAATCTCGTAAGTACTTGACAAATCTTGAAAAGGGGG DNA 2: CCCCCTTTTCAAGATTTGTCAAGTACTTACGAGATTTTACGAACCCCC", "values": [{"measurement": "binding result", "setting": "RhaR (DeoR family)", "result": "binds"}]}
